Results as given in PMC6320914 (Pharmaceutics, 2018).
“Also recorded” adds a separate entry of the source. Square brackets hold non-standard residues; d marks the D form. Peptide text beside a SMILES is read from it. * marks the point of attachment. Daunorubicin(13-NOCH2CO) = COc1cccc2c1C(=O)c1c(O)c3c(c(O)c1C2=O)C[C@@](O)(C(C)=NOCC(=O)*)C[C@@H]3O[C@H]1C[C@H](N)[C@H](O)[C@H](C)O1; pGlu = O=C1CC[C@@H](C(=O)O)N1; Butyryl = CCCC(=O)*

How the values were obtained:
[1] = test system: MDA-MB-231 human breast cancer cells; assay type: cell-based; conditions: 24 h treatment in serum-free medium (0.068–150 µM), then 48 h in complete medium; alamarBlue fluorescence; mean ± SE, performed twice, four parallels
Protocol: (§1) Dulbecco’s Modified Eagle Medium (DMEM, Lonza, Basel, Switzerland), supplemented with 10% (v/v) Fetal Bovine Serum (FBS, Lonza), L-glutamine (2 mM, Lonza), non-essential amino acids (NEAA, Sigma-Aldrich Kft), sodium pyruvate (1 mM, Lonza) and Penicillin-Streptomycin (Lonza) was used to culture MCF-7 human breast adenocarcinoma cells (ATCC:HTB-22). HT-29 human colon adenocarcinoma cells (ATCC:HTB-38) were maintained in RPMI-1640 (Lonza), supplied with 10% FBS, L-glutamine and Penicillin-Streptomycin. MDA-MB-231 breast adenocarcinoma cells were cultured in DMEM (Lonza), supplemented with 10% FBS and Penicillin-Streptomycin. Cells were maintained in plastic culture dishes at 37 °C with a humidified atmosphere containing 5% CO2/95% air.
(§2) 5 × 10^3 cells per well were seeded to 96-well plates (Sarstedt, Nümbrecht, Germany), in a complete cell medium. After 24 h, the cells were treated with bioconjugates in a serum-free medium (concentration range 0.068–150 µM, control wells were treated with a serum-free medium). On the next day, cells were washed two times with a serum-free medium and incubated in a complete medium for 48 h. The cell viability was determined using alamarBlue reagent® (ThermoFisher Scientific) by following the manufacturer’s instructions. A Synergy H4 multi-mode microplate reader (BioTek, Winooski, VT, USA) was used for fluorescence detection (λEx = 570 and at λEM = 620 nm). Experiments were performed twice, using four parallels per concentration. Cell viabilities (and IC50 values) were calculated with Origin Pro8 (OriginLab Corp., Northampton, MA, USA.) using a nonlinear regression (sigmoidal dose–response).

[2] = test system: MCF-7 human breast cancer cells; assay type: cell-based; conditions: 24 h treatment in serum-free medium (0.068–150 µM), then 48 h in complete medium; alamarBlue fluorescence; mean ± SE, performed twice, four parallels
Protocol: as §1, §2

[3] = test system: HT-29 human colon cancer cells; assay type: cell-based; conditions: 24 h treatment in serum-free medium (0.068–150 µM), then 48 h in complete medium; alamarBlue fluorescence; mean ± SE, performed twice, four parallels
Protocol: as §1, §2

[4] = rat liver lysosomal homogenate in 0.2 M NH4OAc buffer (pH 5); conditions: 37 °C, up to 24 h
90% human plasma = conditions: 37 °C, up to 24 h
[5] = molecular target: T1, GnRH-RI expressed on human prostate cancer (Homo sapiens, UniProt P30968); set-up: method as in PMID 10647698, PMID 20859992; conditions: concentrations up to 1 µM; cited from earlier work
T1 construct: Tissue samples of human prostate cancer cells were obtained from a patient at the time of initial surgical treatment; from tissue; host or cells: human prostate cancer surgical specimen, cell membrane homogenate
T1 sequence (P30968 1-328): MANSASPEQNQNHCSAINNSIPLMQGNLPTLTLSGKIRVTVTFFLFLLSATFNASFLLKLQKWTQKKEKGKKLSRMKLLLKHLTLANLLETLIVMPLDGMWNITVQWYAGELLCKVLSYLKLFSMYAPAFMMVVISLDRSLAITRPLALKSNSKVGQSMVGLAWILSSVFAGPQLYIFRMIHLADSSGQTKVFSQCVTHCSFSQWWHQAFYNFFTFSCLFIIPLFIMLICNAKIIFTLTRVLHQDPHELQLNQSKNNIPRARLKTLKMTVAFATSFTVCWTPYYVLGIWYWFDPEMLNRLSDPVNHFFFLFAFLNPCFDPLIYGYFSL

[6] = molecular target: T1, GnRH-RI expressed on human prostate cancer; experiment: Radioligand competition with [125I]-triptorelin, human prostate cancer membranes; assay type: binding; conditions: membrane fractions of human prostate cancer specimens, Figure 5
Protocol: Ligand competition assays with radiolabeled triptorelin were performed to evaluate the binding affinity of K2 and 10 to GnRH-RI expressed on human pituitary and human prostate cancer cells as reported earlier. Tissue samples of human prostate cancer cells were obtained from a patient at the time of initial surgical treatment and normal human pituitary tissue (anterior lobe) derived by autopsy. All subjects gave their informed consent for inclusion before they participated in the study. The collection and the use of these specimens for our studies were conducted in accordance with the Declaration of Helsinki and approved by the local Institutional Ethics Committee (UD REC/IEC 4831-2017). To study the binding affinity of the compounds, cell membrane homogenates were prepared as previously described. Apart from that, triptorelin was radioiodinated using the chloramine-T method, followed by purification by RP-HPLC [34, 40, 41, 44]. To determine the binding affinities of the nonradio-labeled GnRH-III bioconjugates to GnRH-RI, the displacement of [^125I]-GnRH-I-[^6D-Trp] was studied by an in vitro ligand competition assay. […] To determine the protein concentration by the method of Bradford, a Bio-Rad protein assay kit (Bio-Rad Laboratories, USA) was used. The LIGAND-PC computerized curve-fitting program of Munson and Rodbard was used to determine the receptor binding characteristics and IC50 values.

CCCC(=O)NCCCC[C@H](NC(=O)[C@H](Cc1c[nH]c2ccccc12)NC(=O)[C@H](Cc1c[nH]cn1)NC(=O)[C@@H]1CCC(=O)N1)C(=O)N[C@@H](Cc1c[nH]cn1)C(=O)N[C@@H](CC(=O)O)C(=O)N[C@@H](Cc1c[nH]c2ccccc12)C(=O)N[C@@H](CCCCNC(=O)CON=C(C)[C@]1(O)Cc2c(O)c3c(c(O)c2[C@@H](O[C@H]2C[C@H](N)[C@H](O)[C@H](C)O2)C1)C(=O)c1c(OC)cccc1C3=O)C(=O)N1CCC[C@H]1C(=O)NCC [compound 14] ([pGlu]HWK(Butyryl)HDWK(Daunorubicin(13-NOCH2CO))P-NHEt)
IC50 [1]: 12.4 ± 2.3 µM | IC50 [2]: 2.23 ± 0.4 µM | IC50 [3]: 17.84 ± 0.08 µM

<E-D-Tic-K(Bu)HDWK(Dau=Aoa)PG-NH2
cleaved bond [4]: Lys(Bu)4-His5; also recorded: His5-Asp6; also recorded: Asp6-Trp7; also recorded: Trp7-Lys(Dau=Aoa)8; also recorded: Lys(Dau=Aoa)8-Pro9; also recorded: Pro9-Gly10 | fragment found [4]: <E-D-Tic-K(Bu)HDWK(Dau=Aoa)-OH; also recorded: <E-D-Tic-K(Bu)HD-OH; also recorded: <E-D-Tic-K(Bu)H-OH; also recorded: H-K(Dau=Aoa)P-OH; also recorded: H-Lys(Dau=Aoa)-OH, 1 h | not cleaved (90% human plasma): stable for at least 24 h

<EHWK(Bu)HDWK(Dau=Aoa)PG-NH2
cleaved bond [4]: Pro9-Gly10; also recorded: His2-Trp3; also recorded: Trp3-Lys(Bu)4; also recorded: Lys(Bu)4-His5, first_seen, 5 min; also recorded: His5-Asp6; also recorded: Asp6-Trp7; also recorded: Trp7-Lys(Dau=Aoa)8; also recorded: Lys(Dau=Aoa)8-Pro9 | not cleaved (90% human plasma): stable for at least 24 h

bombesin
displacement of triptorelin [5]: not able to displace triptorelin

epidermal growth factor
displacement of [125I]-GnRH-I-[6D-Trp] binding [6]: did not displace the radioligand

human growth hormone
displacement of [125I]-GnRH-I-[6D-Trp] binding [6]: did not displace the radioligand

somatostatin [reference compound]
displacement of [125I]-GnRH-I-[6D-Trp] binding [6]: did not displace the radioligand

somatostatin-14
displacement of triptorelin [5]: not able to displace triptorelin
